# How the values were obtained:
# [1] = target: T1, interaction between the recombinant extracellular domain (ECD) of PD-1 and native cell-bound PD-L1 (Homo sapiens, UniProt Q9NZQ7); test: CHO/PD-L1 cell capture assay; type: cell-based; details: CHO cells overexpressing PD-L1, pre-incubated 1 hr with compound, captured on biotinylated Fc-PD-1 coated plates, 75 min at room temperature
# T1 construct: expressed in transfected cells
# Procedure, shortened: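 CHO cells stably overexpressing PD-L1 were pre-incubated 1 hr with compound, then captured 75 min at room temperature on biotinylated Fc-PD-1 ECD bound to streptavidin plates. After glutaraldehyde/Draq5 fixation-staining, captured cells were counted by high-content microscopy; EC50 from four-parameter dose-response fits.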
# [2] = target: T2, PD-1/PD-L1 interaction (Homo sapiens, UniProt Q9NZQ7); test: PD-1/PD-L1 NFAT reporter co-culture assay; type: cell-based; details: Jurkat PD-1 NFAT-luciferase cells co-cultured with aAPC-PD-L1 CHO cells, 6 hrs at 37° C.; read-out: EC50 NFAT Luciferase
# T2 construct: expressed in transfected cells; host or cells: CHO cells (aAPC-PD-L1) co-cultured with Jurkat cells overexpressing PD-1 and an NFAT-luciferase reporter
# T2 sequence (Q9NZQ7 19-290): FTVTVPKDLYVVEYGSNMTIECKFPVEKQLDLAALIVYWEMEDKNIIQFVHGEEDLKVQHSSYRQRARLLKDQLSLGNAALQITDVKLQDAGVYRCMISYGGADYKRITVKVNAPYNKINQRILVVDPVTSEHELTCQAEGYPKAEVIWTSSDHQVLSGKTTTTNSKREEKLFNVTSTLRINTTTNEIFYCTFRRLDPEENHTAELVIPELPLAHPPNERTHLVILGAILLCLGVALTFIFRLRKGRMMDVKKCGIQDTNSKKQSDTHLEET
# Procedure, shortened: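 Restoration of TCR-driven NFAT luciferase signal: 6 h, 37 °C co-culture of PD-1 Jurkat reporter cells (pre-mixed with compound) on overnight-seeded PD-L1/anti-CD3 CHO monolayer. ONE-Glo luminescence; dose-response fitted to four-parameter equation for EC50.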
# [3] = target: T3, PD-L1 (Homo sapiens, UniProt Q9NZQ7); test: PD-L1/PD-L1 dimerization biochemical protein-protein interaction assay (ALPHA); type: binding; details: compound-induced PD-L1 dimerization, head prints '1 nM' (0.5 nM His-tagged PD-L1 and 0.5 nM FLAG-tagged PD-L1), read-out: AC50 PDL1 Dimer Alpha 1 nM
# T3 construct: determine if they can specifically dimerize the extracellular domains of PD-L1
# T3 sequence (Q9NZQ7 19-238 limits assumed): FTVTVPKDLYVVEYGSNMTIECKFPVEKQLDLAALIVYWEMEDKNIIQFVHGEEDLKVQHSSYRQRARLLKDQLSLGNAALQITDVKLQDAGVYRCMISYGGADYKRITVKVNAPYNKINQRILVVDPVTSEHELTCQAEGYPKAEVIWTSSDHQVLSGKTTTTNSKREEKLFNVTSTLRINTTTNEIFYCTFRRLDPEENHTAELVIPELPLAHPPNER
# T3 sequence (Q9NZQ7 19-238 limits assumed): as above
# Procedure, shortened: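 ALPHA proximity assay of compound-induced dimerization of 0.5 nM His-tagged and 0.5 nM FLAG-tagged PD-L1 extracellular domains in Hepes pH 7.4 buffer, 2 h at 25 °C. Anti-His acceptor then anti-FLAG donor beads, 60 min each; AC50 from four-parameter fit.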
# [4] = target: PD-1/PD-L1 (Homo sapiens, UniProt Q9NZQ7); test: PD-1/PD-L1 biochemical protein-protein interaction assay (ALPHA); type: binding; details: 0.3 nM His tagged PD-L1, 2.5 nM biotinylated Fc-PD-1, 60 minutes at 25° C., read-out: IC50 PD-L1-PD-1 Alpha IC50-mono PD-L1-fcP-D1
# Sequence of PD-1/PD-L1 (Q9NZQ7 19-238 limits assumed): as above
# Procedure, shortened: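 Compounds are tested for blocking the PD-1/PD-L1 extracellular-domain interaction using an ALPHA bead assay, in which inhibition lowers the luminescent signal. Reactions run 60 min at 25° C with 0.3 nM His-PD-L1 and 2.5 nM biotinylated Fc-PD-1. IC50 values come from four-parameter fits.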
# T1 sequence (Q9NZQ7 19-290): as the sequence (Q9NZQ7 19-290) above
SMILES,EC50 [1] [nM],EC50 [2] [nM],AC50 [3] [nM],IC50 [4] [nM]
"COc1nc(OCc2cccc(-c3cccc(COc4nc(OC)c(CN5CCC[C@H]5C(=O)O)cc4Cl)c3C)c2C)c(Cl)cc1CN1CCC[C@H]1C(=O)O [Example 232, (2′S)-(((((2,2′-dimethyl-[1,1′-biphenyl]-3,3′-diyl)bis(methylene))bis(oxy))bis(5-chloro-2-methoxypyridine-6,3-diyl))bis(methylene))di-L-proline]",142,331,314,
"Cc1c(COc2nc(OCCC(N)=O)c(CNCC(=O)O)cc2Cl)cccc1-c1cccc(COc2nc(OCCC(N)=O)c(CNCC(=O)O)cc2Cl)c1C [Example 146, 2,2′-((((((2,2′-dimethyl-[1,1′-biphenyl]-3,3′-diyl)bis(methylene))bis(oxy))bis(2-(3-amino-3-oxopropoxy)-5-chloropyridine-6,3-diyl))bis(methylene))bis(azanediyl))diacetic acid]",184,2300,334,
"Cc1c(COc2nc(OCCC(=O)N(C)C)c(CNC[C@@H](O)CC(=O)O)cc2Br)cccc1-c1cccc(COc2nc(OCCC(=O)N(C)C)c(CNC[C@@H](O)CC(=O)O)cc2Br)c1C [Example 135, (3S,3′S)-4,4′-((((((2,2′-dimethyl-[1,1′-biphenyl]-3,3′-diyl)bis(methylene))bis(oxy))bis(5-bromo-2-(3-(dimethylamino)-3-oxopropoxy)pyridine-6,3-diyl))bis(methylene))bis(azanediyl))bis(3-hydroxybutanoic acid)]",221,812,250,
"COc1nc(OCc2cccc(-c3cccc(COc4nc(OC)c(CN(CCCC(N)=O)CC(=O)O)cc4Br)c3C)c2C)c(Br)cc1CN(CCCC(N)=O)CC(=O)O [Example 117, 2,2′-((((((2,2′-dimethyl-[1,1′-biphenyl]-3,3′-diyl)bis(methylene))bis(oxy))bis(5-bromo-2-methoxypyridine-6,3-diyl))bis(methylene))bis((4-amino-4-oxobutyl)azanediyl))diacetic acid]",158,779,361,
"Cc1c(COc2cc(OCc3cncc(C#N)c3)c(CNCCO)cc2Cl)cccc1-c1cccc2c1CCN2C(=O)c1ccc(CNCCO)c(OCc2cncc(C#N)c2)c1 [Example 205, 5-((4-Chloro-5-((3-(1-(3-((5-cyanopyridin-3-yl)methoxy)-4-(((2-hydroxyethyl)amino)methyl)benzoyl)indolin-4-yl)-2-methylbenzyl)oxy)-2-(((2-hydroxyethyl)amino)methyl)phenoxy)methyl)nicotinonitrile]",394,1430,,6.9
"Cc1c(COc2ccc(CNC[C@@H](O)CC(=O)O)c(OCc3cncnc3)n2)cccc1-c1cccc(COc2ccc(CNC[C@@H](O)CC(=O)O)c(OCc3cncnc3)n2)c1C [Example 157, (3S,3′S)-4,4′-((((((2,2′-dimethyl-[1,1′-biphenyl]-3,3′-diyl)bis(methylene))bis(oxy))bis(2-(pyrimidin-5-ylmethoxy)pyridine-6,3-diyl))bis(methylene))bis(azanediyl))bis(3-hydroxybutanoic acid)]",81.1,465,,0.2
"COc1nc(OCc2cccc(-c3cccc(COc4nc(OC)c(CNC[C@H](O)CC(=O)O)cc4Br)c3C)c2C)c(Br)cc1CNC[C@H](O)CC(=O)O [Example 114, (3R,3′R)-4,4′-((((((2,2′-dimethyl-[1,1′-biphenyl]-3,3′-diyl)bis(methylene))bis(oxy))bis(5-bromo-2-methoxypyridine-6,3-diyl))bis(methylene))bis(azanediyl))bis(3-hydroxybutanoic acid)]",140,186,,0.5
"COc1nc(OCc2cccc(-c3cccc(COc4nc(OC)c(CNC[C@@H](O)CC(=O)O)cc4Br)c3C)c2C)c(Br)cc1CNC[C@@H](O)CC(=O)O [Example 113, (3S,3′S)-4,4′-((((((2,2′-dimethyl-[1,1′-biphenyl]-3,3′-diyl)bis(methylene))bis(oxy))bis(5-bromo-2-methoxypyridine-6,3-diyl))bis(methylene))bis(azanediyl))bis(3-hydroxybutanoic acid)]",148,193,,0.6
"Cc1c(COc2nc(OCC(N)=O)c(CNC[C@@H](O)CC(=O)O)cc2Br)cccc1-c1cccc(COc2nc(OCC(N)=O)c(CNC[C@@H](O)CC(=O)O)cc2Br)c1C [Example 155, (3S,3′S)-4,4′-((((((2,2′-dimethyl-[1,1′-biphenyl]-3,3′-diyl)bis(methylene))bis(oxy))bis(2-(2-amino-2-oxoethoxy)-5-bromopyridine-6,3-diyl))bis(methylene))bis(azanediyl))bis(3-hydroxybutanoic acid)]",211,6490,,0.2
"Cc1c(COc2cc(OCC3CCOC3)c(CNC[C@@H](O)CC(=O)O)cc2Cl)cccc1-c1cccc(COc2cc(OCC3CCOC3)c(CNC[C@@H](O)CC(=O)O)cc2Cl)c1C (stereo partly drawn) [Example 280, (3S,3′S)-4,4′-((((((2,2′-dimethyl-[1,1′-biphenyl]-3,3′-diyl)bis(methylene))bis(oxy))bis(5-chloro-2-((tetrahydrofuran-3-yl)methoxy)-4,1-phenylene))bis(methylene))bis(azanediyl))bis(3-hydroxybutanoic acid)]",208,592,,0.3

# Molecules with a lower EC50 [1], results first:
EC50 [1] [nM],EC50 [2] [nM],AC50 [3] [nM],IC50 [4] [nM],SMILES
52.1,≥ 50000,369,,"COc1nc(OCc2cccc(-c3cccc(COc4nc(OC)c(C5=NCCN5)cc4Cl)c3C)c2C)c(Cl)cc1C1=NCCN1 [Example 30, 6,6′-(((2,2′-dimethyl-[1,1′-biphenyl]-3,3′-diyl)bis(methylene))bis(oxy))bis(5-chloro-3-(4,5-dihydro-1H-imidazol-2-yl)-2-methoxypyridine)]"
6.5,354,194,,"COc1nc(OCc2cccc(-c3cccc(-c4ccc(OCCNC[C@H](O)CC(=O)O)cc4)c3C)c2C)c(Cl)cc1CNC[C@H](O)CC(=O)O [Example 110, (R)-4-(((6-((4″-(2-(((R)-3-carboxy-2-hydroxypropyl)amino)ethoxy)-2,2′-dimethyl-[1,1′:3′,1″-terphenyl]-3-yl)methoxy)-5-chloro-2-methoxypyridin-3-yl)methyl)amino)-3-hydroxybutanoic acid]"
50.6,139,≥ 10000,,"COc1nc(OCc2cccc(-c3cccc(COc4nc(OC)c(CNCCC(=O)O)cc4Cl)c3C)c2C)c(Cl)cc1CNCCC(=O)O [Example 172, 3,3′-((((((2,2′-dimethyl-[1,1′-biphenyl]-3,3′-diyl)bis(methylene))bis(oxy))bis(5-chloro-2-methoxypyridine-6,3-diyl))bis(methylene))bis(azanediyl))dipropionic acid]"
65.2,79,≥ 10000,,"COc1nc(OCc2cccc(-c3cccc(COc4nc(OC)c(CN[C@](C)(CO)C(=O)O)cc4Cl)c3C)c2C)c(Cl)cc1CN[C@](C)(CO)C(=O)O [Example 43, (2R,2′R)-2,2′-((((((2,2′-dimethyl-[1,1′-biphenyl]-3,3′-diyl)bis(methylene))bis(oxy))bis(5-chloro-2-methoxypyridine-6,3-diyl))bis(methylene))bis(azanediyl))bis(3-hydroxy-2-methylpropanoic acid)]"
34.4,286,184,,"Cc1c(COc2cc(OCc3cncc(C#N)c3)c(CNC[C@@H](O)CC(=O)O)cc2Cl)cccc1-c1cccc(-c2ccc(OCCNC[C@@H](O)CC(=O)O)cn2)c1C [Example 112, (S)-4-((4-((3′-(5-(2-(((S)-3-carboxy-2-hydroxypropyl)amino)ethoxy)pyridin-2-yl)-2,2′-dimethyl-[1,1′-biphenyl]-3-yl)methoxy)-5-chloro-2-((5-cyanopyridin-3-yl)methoxy)benzyl)amino)-3-hydroxybutanoic acid]"
41.6,139,,2,"COc1nc(OCc2cccc(-c3cccc(COc4nc(OC)c(CNC[C@H](O)C(=O)O)cc4Cl)c3C)c2C)c(Cl)cc1CNC[C@H](O)C(=O)O [Example 166, (2S,2′S)-3,3′-((((((2,2′-dimethyl-[1,1′-biphenyl]-3,3′-diyl)bis(methylene))bis(oxy))bis(5-chloro-2-methoxypyridine-6,3-diyl))bis(methylene))bis(azanediyl))bis(2-hydroxypropanoic acid)]"

# Reference: US12590062B2, “PD-1/PD-L1 inhibitors” (Gilead Sciences, Inc., priority 2017, dated 2026)
